This is an account of results in the NIST ThermoML archive (doi:10.1021/je030165y).

Numbers after ± are expanded uncertainties.

The data set is described as follows: refractive index (Na D-line) (dimensionless). Particulars: 298.15 K; 101.33 kPa; Liquid; Standard Abbe refractometry.
For the compound `COCCOC` [1,2-dimethoxyethane], the refractive index amounted to 1.3783 ± 0.0008.

As for `C1CCCCC1` [cyclohexane], the refractive index was found to be 1.4236 ± 0.0008.

In the case of `CCCCCC` [hexane], the refractive index is listed as 1.3722 ± 0.0007.

With `Cc1ccccc1` [toluene], the refractive index was 1.4941 ± 0.0008.
